Reference: ChEMBL document CHEMBL1201862, “PubChem BioAssay data set” (2004)
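Following 48 hours of exposure in 96-well plates, responses at five concentrations were used to interpolate endpoints linearly. GI50 = concentration required for 50% inhibition of growth.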 The source made the active and inactive calls. Cut-off read from the data, not from the text of the source: active = GI50 up to about 1.1 µM and inactive = higher.

Key:
Assay in all cases: NCI-60 cell line screen, 48 h
[1] = tested on: SK-MEL-5
[2] = tested on: A498
[3] = tested on: OVCAR-3
[4] = tested on: RXF 393
[5] = tested on: K562
[6] = tested on: ACHN
[7] = tested on: LOX IMVI
[8] = tested on: NCI-H23
[9] = tested on: SK-MEL-28
[10] = tested on: MDA-N
[11] = tested on: T47D
[12] = tested on: HOP-62
[13] = tested on: EKVX
[14] = tested on: HCT-116
[15] = tested on: PC-3
[16] = tested on: MDA-MB-435
[17] = tested on: CAKI-1
[18] = tested on: OVCAR-8
[19] = tested on: SF-295
[20] = tested on: HL-60

| Structure (SMILES) | GI50 [1] | GI50 [2] | GI50 [3] | GI50 [4] | GI50 [5] | GI50 [6] | GI50 [7] | GI50 [8] | GI50 [9] | GI50 [10] | GI50 [11] | GI50 [12] | GI50 [13] | GI50 [14] | GI50 [15] | GI50 [16] | GI50 [17] | GI50 [18] | GI50 [19] | GI50 [20] |
| --- | --- | --- | --- | --- | --- | --- | --- | --- | --- | --- | --- | --- | --- | --- | --- | --- | --- | --- | --- | --- |
| CCOC(=O)/C=C\C(C#N)(C#N)/N=C/c1ccsc1 | 20 µM (inactive) | 19 µM (inactive) | 2.54 µM (inactive) | 2.26 µM (inactive) | 3.13 µM (inactive) | 2.91 µM (inactive) | 4.06 µM (inactive) | 9.68 µM (inactive) | 2.38 µM (inactive) | 8.91 µM (inactive) | 2 µM (inactive) | 19.4 µM (inactive) | 16.5 µM (inactive) | 2.17 µM (inactive) | 8.99 µM (inactive) | 2.39 µM (inactive) | 2.25 µM (inactive) | 3.86 µM (inactive) | 29.3 µM (inactive) | 2 µM (inactive) |
| c1ccc2c[n+](CCCC[n+]3ccc4ccccc4c3)ccc2c1 | > 100 µM (inactive) | > 100 µM (inactive) | > 100 µM (inactive) | > 100 µM (inactive) | > 100 µM (inactive) | > 100 µM (inactive) | > 100 µM (inactive) | > 100 µM (inactive) | > 100 µM (inactive) | > 100 µM (inactive) | > 100 µM (inactive) | > 100 µM (inactive) | > 100 µM (inactive) | > 100 µM (inactive) | > 100 µM (inactive) | > 100 µM (inactive) | > 100 µM (inactive) | > 100 µM (inactive) | > 100 µM (inactive) | > 100 µM (inactive) |
| NCc1nnn(Cc2ccccc2)c1N | > 100 µM (inactive) | > 100 µM (inactive) | > 100 µM (inactive) | > 100 µM (inactive) | > 100 µM (inactive) | > 100 µM (inactive) | > 100 µM (inactive) | > 100 µM (inactive) | > 100 µM (inactive) | > 100 µM (inactive) | > 100 µM (inactive) | > 100 µM (inactive) | > 100 µM (inactive) | > 100 µM (inactive) | > 100 µM (inactive) | > 100 µM (inactive) | > 100 µM (inactive) | > 100 µM (inactive) | > 100 µM (inactive) | > 100 µM (inactive) |
| CC1=CC=CC(C)(C)CC1(O[Si](C)(C)C)C(F)(F)F (stereo not given) | > 100 µM (inactive) | > 100 µM (inactive) | > 100 µM (inactive) | > 100 µM (inactive) | 76.4 µM (inactive) | > 100 µM (inactive) | > 100 µM (inactive) | > 100 µM (inactive) | > 100 µM (inactive) | > 100 µM (inactive) | > 100 µM (inactive) | > 100 µM (inactive) | 82.6 µM (inactive) | > 100 µM (inactive) | > 100 µM (inactive) | > 100 µM (inactive) | > 100 µM (inactive) | > 100 µM (inactive) | > 100 µM (inactive) | 28.9 µM (inactive) |
| COc1cc(C(=O)OC2CC34CCNC35CC(OC5(OC)C2O)c2cc3c(cc24)OCO3)ccc1O (stereo not given) | > 100 µM (inactive) | > 100 µM (inactive) | > 100 µM (inactive) | > 100 µM (inactive) | > 100 µM (inactive) | > 100 µM (inactive) | > 100 µM (inactive) | > 100 µM (inactive) | > 100 µM (inactive) | > 100 µM (inactive) | > 100 µM (inactive) | > 100 µM (inactive) | > 100 µM (inactive) | > 100 µM (inactive) | > 100 µM (inactive) | > 100 µM (inactive) | > 100 µM (inactive) | > 100 µM (inactive) | > 100 µM (inactive) | > 100 µM (inactive) |
| CC(C)OP(=O)(OC(C)C)/C(C#N)=C/c1ccco1 | > 100 µM (inactive) | > 100 µM (inactive) | > 100 µM (inactive) | > 100 µM (inactive) | > 100 µM (inactive) | > 100 µM (inactive) | > 100 µM (inactive) | > 100 µM (inactive) | > 100 µM (inactive) | > 100 µM (inactive) | > 100 µM (inactive) | > 100 µM (inactive) | > 100 µM (inactive) | > 100 µM (inactive) | > 100 µM (inactive) | > 100 µM (inactive) | > 100 µM (inactive) | > 100 µM (inactive) | > 100 µM (inactive) | > 100 µM (inactive) |
| CC1=NN(C(=O)c2ccccc2O)C(=O)/C1=C/c1ccccc1O | 1.06 µM (active) | 0.0327 µM (active) | 0.215 µM (active) | 0.0986 µM (active) | 0.0914 µM (active) | 0.0695 µM (active) | 0.568 µM (active) | 0.404 µM (active) | 18.5 µM (inactive) | 0.114 µM (active) | 0.225 µM (active) | 0.236 µM (active) | 1.78 µM (inactive) | 0.107 µM (active) | 1.35 µM (inactive) | 0.0612 µM (active) | 1.53 µM (inactive) | 0.557 µM (active) | 0.0736 µM (active) | 0.409 µM (active) |
| CN(C)CC1(Cc2ccccc2)CCC(Cc2ccccc2)C1=O (stereo not given) | 13.7 µM (inactive) | 15.5 µM (inactive) | 6.95 µM (inactive) | 13.9 µM (inactive) | 2.79 µM (inactive) | 16.1 µM (inactive) | 6.9 µM (inactive) | 18.1 µM (inactive) | 12.3 µM (inactive) | 11 µM (inactive) | 8.61 µM (inactive) | 18 µM (inactive) | 17.1 µM (inactive) | 11.1 µM (inactive) | 10.1 µM (inactive) | 10.2 µM (inactive) | 13.3 µM (inactive) | 5.73 µM (inactive) | 16.6 µM (inactive) | 3.29 µM (inactive) |
| CSc1ccc2c(c1)c(CCN)c(C)n2Cc1ccccc1Cl | 1.72 µM (inactive) | 1.71 µM (inactive) | 1.86 µM (inactive) | 1.4 µM (inactive) | 1.69 µM (inactive) | 1.69 µM (inactive) | 1.83 µM (inactive) | 1.93 µM (inactive) | 1.75 µM (inactive) | 1.64 µM (inactive) | 1.57 µM (inactive) | 1.18 µM (inactive) | 1.62 µM (inactive) | 1.63 µM (inactive) | 1.52 µM (inactive) | 1.67 µM (inactive) | 1.95 µM (inactive) | 1.79 µM (inactive) | 1.82 µM (inactive) | 1.56 µM (inactive) |
| COC(=O)c1ccccc1C1CN=NC12Cc1c(C)cc(C)cc1C2=O (stereo not given) | > 100 µM (inactive) | > 100 µM (inactive) | > 100 µM (inactive) | > 100 µM (inactive) | > 100 µM (inactive) | > 100 µM (inactive) | > 100 µM (inactive) | > 100 µM (inactive) | > 100 µM (inactive) | > 100 µM (inactive) | > 100 µM (inactive) | > 100 µM (inactive) | > 100 µM (inactive) | > 100 µM (inactive) | > 100 µM (inactive) | > 100 µM (inactive) | > 100 µM (inactive) | > 100 µM (inactive) | > 100 µM (inactive) | > 100 µM (inactive) |
| Cc1cc(S(=O)(=O)N=C2N(Cc3ccccc3)CCN2Cc2ccccc2)c(S)cc1Cl | > 100 µM (inactive) | > 100 µM (inactive) | > 100 µM (inactive) | 78.3 µM (inactive) | > 100 µM (inactive) | > 10 µM (inactive) | 70.8 µM (inactive) | > 100 µM (inactive) | > 100 µM (inactive) | > 100 µM (inactive) | 10.8 µM (inactive) | > 100 µM (inactive) | > 100 µM (inactive) | > 100 µM (inactive) | 27.7 µM (inactive) | > 100 µM (inactive) | > 100 µM (inactive) | > 100 µM (inactive) | 48.9 µM (inactive) | > 100 µM (inactive) |
| Cc1cnc2nc(-c3ccc(F)cc3)cc(O)c2c1 | 26.6 µM (inactive) | 25.4 µM (inactive) | 27.5 µM (inactive) | 31.3 µM (inactive) | 4.52 µM (inactive) | 57.5 µM (inactive) | 40.4 µM (inactive) | 41.3 µM (inactive) | > 87.1 µM (inactive) | 2.72 µM (inactive) | 39.2 µM (inactive) | 37.5 µM (inactive) | 30.9 µM (inactive) | 18.7 µM (inactive) | 28.6 µM (inactive) | 2.81 µM (inactive) | 50.9 µM (inactive) | 66.4 µM (inactive) | 25.9 µM (inactive) | 3.26 µM (inactive) |
| O=[N+]([O-])/C=C1\COCc2cc3c(cc21)OCO3 | 19.6 µM (inactive) | 18.8 µM (inactive) | 16.8 µM (inactive) | 17.9 µM (inactive) | 27.2 µM (inactive) | 20.8 µM (inactive) | 27.2 µM (inactive) | 12.1 µM (inactive) | 17.5 µM (inactive) | 18.9 µM (inactive) | 15.9 µM (inactive) | 38.9 µM (inactive) | 28.1 µM (inactive) | 21.2 µM (inactive) | 12.3 µM (inactive) | 14.5 µM (inactive) | 13 µM (inactive) | 27.8 µM (inactive) | 44 µM (inactive) | 25.2 µM (inactive) |
| O=C(NNCc1ccco1)c1cc2ccccc2[nH]1 | > 100 µM (inactive) | > 100 µM (inactive) | > 55.6 µM (inactive) | > 100 µM (inactive) | > 100 µM (inactive) | > 54.7 µM (inactive) | > 100 µM (inactive) | > 61.9 µM (inactive) | > 100 µM (inactive) | > 100 µM (inactive) | 13.5 µM (inactive) | > 52.6 µM (inactive) | 61.5 µM (inactive) | > 86.1 µM (inactive) | > 91 µM (inactive) | > 85.5 µM (inactive) | > 100 µM (inactive) | > 53.1 µM (inactive) | 91.8 µM (inactive) | > 29.1 µM (inactive) |
